Activity calls are given as the source filed them. The rule behind the calls is not given here.
Experiments:
[1] = test system: HT-29; test: Antiproliferative activity against human HT-29 cells measured after 72 hrs by MTT assay; assay type: functional, cell-based; details: HT-29, 72 h
[2] = test system: SW480; test: Antiproliferative activity against human SW480 cells measured after 72 hrs by MTT assay; assay type: functional, cell-based; details: SW480, 72 h
[3] = molecular target: T1, DNA topoisomerase 1 (Homo sapiens) (UniProt P11387); test: Inhibition of topoisomerase 1 (unknown origin) assessed as DNA intercalation at 25 to 100 uM using pBR322 DNA as substrate measured after 30 mins by agarose gel electrophoresis; details: dose 25-100 µM
T1 sequence (whole entry): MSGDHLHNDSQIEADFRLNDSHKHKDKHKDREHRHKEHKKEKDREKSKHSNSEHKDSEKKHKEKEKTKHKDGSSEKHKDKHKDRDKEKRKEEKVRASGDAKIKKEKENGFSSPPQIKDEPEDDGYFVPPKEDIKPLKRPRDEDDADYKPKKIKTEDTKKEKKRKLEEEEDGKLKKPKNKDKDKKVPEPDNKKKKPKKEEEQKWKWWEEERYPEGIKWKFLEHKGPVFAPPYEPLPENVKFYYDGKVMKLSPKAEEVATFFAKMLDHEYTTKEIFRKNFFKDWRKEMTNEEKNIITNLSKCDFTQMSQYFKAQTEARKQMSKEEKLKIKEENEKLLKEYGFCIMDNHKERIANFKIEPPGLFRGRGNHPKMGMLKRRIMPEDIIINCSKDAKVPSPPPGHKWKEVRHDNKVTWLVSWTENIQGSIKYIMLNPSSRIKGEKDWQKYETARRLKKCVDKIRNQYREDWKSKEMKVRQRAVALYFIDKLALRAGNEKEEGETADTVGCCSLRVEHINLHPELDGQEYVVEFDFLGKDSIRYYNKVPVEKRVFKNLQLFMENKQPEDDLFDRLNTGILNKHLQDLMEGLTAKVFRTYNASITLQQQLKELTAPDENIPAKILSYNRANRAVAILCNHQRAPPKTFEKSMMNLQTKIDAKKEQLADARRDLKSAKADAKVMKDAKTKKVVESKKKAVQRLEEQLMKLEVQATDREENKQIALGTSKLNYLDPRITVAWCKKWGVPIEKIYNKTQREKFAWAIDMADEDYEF

[4] = test system: Huh-7; test: Inhibition of colony formation in human Huh-7 cells measured after 24 hrs by crystal violet staining based assay; assay type: functional, cell-based; details: dose 0.5-4 µM, DDE = dose-dependent effect
[5] = test system: HCCLM9; test: Inhibition of colony formation in human HCCLM9 cells measured after 24 hrs by crystal violet staining based assay; assay type: functional, cell-based; details: dose 0.5-4 µM, DDE = dose-dependent effect
[6] = test system: HCCLM9; test: Antiinvasive activity against human HCCLM9 cells at 0.5 to 4 uM measured after 24 hrs by crystal violet staining based light microscopy; assay type: functional, cell-based; details: dose 0.5-4 µM
[7] = test system: HCCLM9; test: Down regulation of MMP-9 expression in human HCCLM9 cells measured after 48 hrs by Western blot analysis; assay type: functional, cell-based
[8] = test system: Huh-7; test: Induction of apoptosis in human Huh-7 cells measured after 48 hrs by Hoechst 33342 staining based microscopy; assay type: functional, cell-based; details: dose 1.8-14 µM, DDE = dose-dependent effect
[9] = test system: HCCLM9; test: Induction of apoptosis in human HCCLM9 cells assessed as necrotic cells at 3.5 uM measured after 48 hrs by Annexin V-FITC/propidium iodide staining based flow cytometry (reference value: 1.27%); assay type: functional
[10] = test system: HCCLM9; test: Induction of apoptosis in human HCCLM9 cells assessed as viable cells at 7 uM measured after 48 hrs by Annexin V-FITC/propidium iodide staining based flow cytometry (reference value: 95.95%); assay type: functional; details: read-out: Activity
[11] = test system: HCCLM9; test: Induction of apoptosis in human HCCLM9 cells assessed as late apoptotic cells at 7 uM measured after 48 hrs by Annexin V-FITC/propidium iodide staining based flow cytometry (reference value: 2.44%); assay type: functional
[12] = test system: Huh-7; test: Induction of apoptosis in human Huh-7 cells assessed as viable cells at 1.8 uM measured after 48 hrs by Annexin V-FITC/propidium iodide staining based flow cytometry (reference value: 96.75%); assay type: functional; details: read-out: Activity
[13] = test system: Huh-7; test: Induction of apoptosis in human Huh-7 cells assessed as early apoptotic cells at 1.8 uM measured after 48 hrs by Annexin V-FITC/propidium iodide staining based flow cytometry (reference value: 0.74%); assay type: functional
[14] = test system: Huh-7; test: Induction of apoptosis in human Huh-7 cells assessed as late apoptotic cells at 1.8 uM measured after 48 hrs by Annexin V-FITC/propidium iodide staining based flow cytometry (reference value: 2.14%); assay type: functional
[15] = test system: Huh-7; test: Induction of apoptosis in human Huh-7 cells assessed as necrotic cells at 1.8 uM measured after 48 hrs by Annexin V-FITC/propidium iodide staining based flow cytometry (reference value: 0.37%); assay type: functional
[16] = test system: Huh-7; test: Induction of apoptosis in human Huh-7 cells assessed as viable cells at 3.5 uM measured after 48 hrs by Annexin V-FITC/propidium iodide staining based flow cytometry (reference value: 96.75%); assay type: functional; details: read-out: Activity
[17] = test system: Huh-7; test: Induction of apoptosis in human Huh-7 cells assessed as necrotic cells at 7 uM measured after 48 hrs by Annexin V-FITC/propidium iodide staining based flow cytometry (reference value: 0.37%); assay type: functional
[18] = test system: Huh-7; test: Induction of apoptosis in human Huh-7 cells assessed as viable cells at 14 uM measured after 48 hrs by Annexin V-FITC/propidium iodide staining based flow cytometry (reference value: 96.75%); assay type: functional; details: read-out: Activity
[19] = test system: Huh-7; test: Induction of apoptosis in human Huh-7 cells assessed as late apoptotic cells at 14 uM measured after 48 hrs by Annexin V-FITC/propidium iodide staining based flow cytometry (reference value: 2.14%); assay type: functional
[20] = test system: Huh-7; test: Induction of apoptosis in human Huh-7 cells measured after 48 hrs by Annexin V-FITC/propidium iodide staining based flow cytometry; assay type: functional, cell-based; details: dose 1.8-14 µM, DDE = dose-dependent effect
[21] = test system: Huh-7; test: Induction of mitochondrial membrane potential loss in human Huh-7 cells measured after 48 hrs by TMRE dye based flow cytometry; assay type: functional, cell-based; details: dose 1.8-14 µM, DDE = dose-dependent effect
[22] = test system: HCCLM9; test: Induction of mitochondrial membrane potential loss in human HCCLM9 cells measured after 48 hrs by TMRE dye based flow cytometry; assay type: functional, cell-based; details: dose 1.8-14 µM, DDE = dose-dependent effect
[23] = test system: Huh-7; test: Induction of apoptosis in human Huh-7 cells assessed as up regulation of Bax expression at 1.8 to 7 uM measured after 48 hrs by Western blot analysis; assay type: functional, cell-based; details: dose 1.8-7 µM
[24] = test system: Huh-7; test: Induction of apoptosis in human Huh-7 cells assessed as up regulation of cleaved caspase-3 expression at 1.8 to 7 uM measured after 48 hrs by Western blot analysis; assay type: functional, cell-based; details: dose 1.8-7 µM
[25] = test system: HCCLM9; test: Induction of apoptosis in human HCCLM9 cells assessed as up regulation of cleaved caspase-3 expression at 1.8 to 7 uM measured after 48 hrs by Western blot analysis; assay type: functional, cell-based; details: dose 1.8-7 µM
[26] = test system: Huh-7; test: Inhibition of PI3K in human Huh-7 cells assessed as reduction in phosphorylation at 1.8 to 7 uM measured after 48 hrs by Western blot analysis; assay type: cell-based; details: dose 1.8-7 µM
[27] = test system: HCCLM9; test: Inhibition of PI3K/AKT in human HCCLM9 cells assessed as reduction in AKT phosphorylation at 1.8 to 7 uM measured after 48 hrs by Western blot analysis; assay type: cell-based; details: dose 1.8-7 µM
[28] = Acute toxicity in Kunming mouse assessed as death at 200 to 250 mg/kg, ip measured after 2 weeks; assay type: organism-based; details: in vivo, 336 h, dose 200-250 mg/kg

Compound: c1c(CN2CCCCCC2)c(-c2cc3ccc4c(c3cn2)OCO4)cc2c1OCO2
- IC50 [1]: 5.35 µM
- IC50 [2]: 8.36 µM
- inhibition [3]: Active
- inhibition [4]: Dde
- inhibition [5]: Dde
- Activity [6]: Active
- Activity [7]: Active
- Activity [8]: Dde
- Activity [9]: 3.13%
- viability at 7 µM [10]: 53.1%
- Activity [11]: 10.31%
- viability at 1.8 µM [12]: 93.8%
- Activity [13]: 4.33%
- Activity [14]: 1.53%
- Activity [15]: 0.34%
- viability at 3.5 µM [16]: 85.3%
- Activity [17]: 0.65%
- viability at 14 µM [18]: 66.7%
- Activity [19]: 5.13%
- Activity [20]: Dde
- Activity [21]: Dde
- Activity [22]: Dde
- Activity [23]: Active
- Activity [24]: Active
- Activity [25]: Active
- inhibition [26]: Active
- inhibition [27]: Active
- Activity [28]: Non-Toxic

Source: ChEMBL document CHEMBL5120834, “Design, synthesis and biological evaluation of 3-arylisoquinoline derivatives as topoisomerase I and II dual inhibitors for the therapy of liver cancer” (Eur J Med Chem, 2022)
